Columns and labels:
[1] = test system: Klebsiella pneumoniae ATCC BAA-2470; test: MIC test of compounds in combination with antibiotics, Klebsiella pneumoniae ATCC BAA-2470; conditions: for MIC: Klebsiella pneumoniae, ATCCBAA2470; for MIC of biapenem in combination with compound, Klebsiella pneumoniae ATCC BAA-2470 NDM-1: Biapenem + compound (8 μg/mL); for MIC of meropenem in combination with compound, Klebsiella pneumoniae ATCC BAA-2470 NDM-1: Meropenem + compound (8 μg/mL)
[2] = test system: Klebsiella pneumoniae ARLG 1196; test: MIC test of compounds in combination with antibiotics, Klebsiella pneumoniae ARLG 1196; conditions: for MIC: Klebsiella pneumoniae, ARLG1196; for MIC of biapenem in combination with compound, Klebsiella pneumoniae ARLG-1196 CTM-1 group, SHV, NDM, TEM: Biapenem + compound (8 μg/mL); for MIC of meropenem in combination with compound, Klebsiella pneumoniae ARLG-1196 CTM-1 group, SHV, NDM, TEM: Meropenem + compound (8 μg/mL)
[3] = test system: Acinetobacter baumannii ARLG-1853 OXA-23; test: MIC test of compounds in combination with antibiotics, Acinetobacter baumannii ARLG-1853; conditions: Acinetobacter baumannii, ARLG1853OXA23
[4] = test system: Acinetobacter baumannii ARLG-1852 OXA-23; test: MIC test of compounds in combination with antibiotics, Acinetobacter baumannii ARLG-1852; conditions: Acinetobacter baumannii, ARLG1852OXA23
[5] = test system: Acinetobacter baumannii ARLG-1791 OXA-23; test: MIC test of compounds in combination with antibiotics, Acinetobacter baumannii ARLG-1791; conditions: Acinetobacter baumannii, ARLG1791OXA23
[6] = test system: Acinetobacter baumannii ARLG-1809 OXA-23; test: MIC test of compounds in combination with antibiotics, Acinetobacter baumannii ARLG-1809; conditions: Acinetobacter baumannii, ARLG1809OXA23
[7] = test system: Escherichia coli ARLG 2829; test: MIC test of compounds in combination with antibiotics, Escherichia coli ARLG 2829; conditions: for MIC: Escherichia coli, ARLG2829; for MIC of biapenem in combination with compound, Escherichia coli ARLG-2829 NDM-5, OXA-1: Biapenem + compound (8 μg/mL); for MIC of meropenem in combination with compound, Escherichia coli ARLG-2829 NDM-5, OXA-1: Meropenem + compound (8 μg/mL)
[8] = test system: Acinetobacter baumannii WX-AB005; test: MIC test of compounds in combination with antibiotics, Acinetobacter baumannii WX-AB005; conditions: Acinetobacter baumannii, WXAB005
[9] = test system: Acinetobacter baumannii WX-AB013; test: MIC test of compounds in combination with antibiotics, Acinetobacter baumannii WX-AB013; conditions: Acinetobacter baumannii, WXAB013
[10] = test system: Klebsiella pneumoniae ATCC BAA-1705; test: MIC test of compounds in combination with antibiotics, Klebsiella pneumoniae ATCC BAA-1705; conditions: for MIC: Klebsiella pneumoniae, ATCCBAA1705; for MIC of biapenem in combination with compound, Klebsiella pneumoniae ATCC BAA-1705 KPC-2: Biapenem + compound (8 μg/mL); for MIC of meropenem in combination with compound, Klebsiella pneumoniae ATCC BAA-1705 KPC-2: Meropenem + compound (8 μg/mL)
[11] = test system: Acinetobacter baumannii ARLG-1852 OXA-23; test: MIC test of compounds in combination with antibiotics, Acinetobacter baumannii ARLG-1852; conditions: for MIC of biapenem in combination with compound, Acinetobacter baumannii ARLG-1852 OXA-23: Biapenem + compound (8 μg/mL); for MIC of meropenem in combination with compound, Acinetobacter baumannii ARLG-1852 OXA-23: Meropenem + compound (8 μg/mL)
[12] = test system: Acinetobacter baumannii WX-AB013; test: MIC test of compounds in combination with antibiotics, Acinetobacter baumannii WX-AB013; conditions: for MIC of biapenem in combination with compound, Acinetobacter baumannii WX-AB013: Biapenem + compound (8 μg/mL); for MIC of meropenem in combination with compound, Acinetobacter baumannii WX-AB013: Meropenem + compound (8 μg/mL)
[13] = test system: Acinetobacter baumannii ARLG-1809 OXA-23; test: MIC test of compounds in combination with antibiotics, Acinetobacter baumannii ARLG-1809; conditions: for MIC of biapenem in combination with compound, Acinetobacter baumannii ARLG-1809 OXA-23: Biapenem + compound (8 μg/mL); for MIC of meropenem in combination with compound, Acinetobacter baumannii ARLG-1809 OXA-23: Meropenem + compound (8 μg/mL)
[14] = test system: Acinetobacter baumannii ARLG-1791 OXA-23; test: MIC test of compounds in combination with antibiotics, Acinetobacter baumannii ARLG-1791; conditions: for MIC of biapenem in combination with compound, Acinetobacter baumannii ARLG-1791 OXA-23: Biapenem + compound (8 μg/mL); for MIC of meropenem in combination with compound, Acinetobacter baumannii ARLG-1791 OXA-23: Meropenem + compound (8 μg/mL)
[15] = test system: Acinetobacter baumannii ARLG-1853 OXA-23; test: MIC test of compounds in combination with antibiotics, Acinetobacter baumannii ARLG-1853; conditions: for MIC of biapenem in combination with compound, Acinetobacter baumannii ARLG-1853 OXA-23: Biapenem + compound (8 μg/mL); for MIC of meropenem in combination with compound, Acinetobacter baumannii ARLG-1853 OXA-23: Meropenem + compound (8 μg/mL)
[16] = test system: Acinetobacter baumannii WX-AB005; test: MIC test of compounds in combination with antibiotics, Acinetobacter baumannii WX-AB005; conditions: for MIC of biapenem in combination with compound, Acinetobacter baumannii WX-AB005: Biapenem + compound (8 μg/mL); for MIC of meropenem in combination with compound, Acinetobacter baumannii WX-AB005: Meropenem + compound (8 μg/mL)

Row | Structure (SMILES) | MIC of biapenem in combination with compound, Klebsiella pneumoniae ATCC BAA-2470 NDM-1 [1] | MIC of meropenem in combination with compound, Klebsiella pneumoniae ATCC BAA-2470 NDM-1 [1] | MIC of biapenem in combination with compound, Acinetobacter baumannii ARLG-1852 OXA-23 [11] | MIC of meropenem in combination with compound, Acinetobacter baumannii ARLG-1852 OXA-23 [11] | MIC of biapenem in combination with compound, Klebsiella pneumoniae ARLG-1196 CTM-1 group, SHV, NDM, TEM [2] | MIC of meropenem in combination with compound, Klebsiella pneumoniae ARLG-1196 CTM-1 group, SHV, NDM, TEM [2] | MIC of biapenem in combination with compound, Acinetobacter baumannii WX-AB013 [12] | MIC of meropenem in combination with compound, Acinetobacter baumannii WX-AB013 [12] | MIC of biapenem in combination with compound, Acinetobacter baumannii ARLG-1809 OXA-23 [13] | MIC of meropenem in combination with compound, Acinetobacter baumannii ARLG-1809 OXA-23 [13] | MIC [1] | MIC [2] | MIC [3] | MIC [4] | MIC [5] | MIC [6] | MIC [7] | MIC [8] | MIC [9] | MIC [10] | other results
1 | C[C@@H](O)[C@H]1C(=O)N2C(C(=O)[O-])=C(SC3Cn4cnc[n+]4C3)[C@H](C)[C@H]12 (stereo partly drawn) [Biapenem, biapenem] | – | – | – | – | – | – | – | – | – | – | 4 µg/mL | 8 µg/mL | 32 µg/mL | 32 µg/mL | 16 µg/mL | 32 µg/mL | 16 µg/mL | 32 µg/mL | 64 µg/mL | 32 µg/mL | –
2 | C[C@@H](O)[C@H]1C(=O)N2C(C(=O)O)=C(S[C@@H]3CN[C@H](C(=O)N(C)C)C3)[C@H](C)[C@H]12 [Meropenem] | – | – | – | – | – | – | – | – | – | – | 128 µg/mL | 128 µg/mL | 128 µg/mL | 128 µg/mL | > 128 µg/mL | 32 µg/mL | > 128 µg/mL | > 128 µg/mL | 64 µg/mL | 128 µg/mL | –
3 | CO/N=C(\C(=O)N[C@@H]1C(=O)N2C(C(=O)[O-])=C(C[N+]3(C)CCCC3)CS[C@H]12)c1csc(N)n1 [Cefepime] | – | – | – | – | – | – | – | – | – | – | > 128 µg/mL | > 64 µg/mL | 128 µg/mL | 128 µg/mL | 128 µg/mL | 128 µg/mL | > 64 µg/mL | 64 µg/mL | 32 µg/mL | > 128 µg/mL | –

The next lines start with results.

Row | MIC of biapenem in combination with compound, Klebsiella pneumoniae ATCC BAA-2470 NDM-1 [1] | MIC of meropenem in combination with compound, Klebsiella pneumoniae ATCC BAA-2470 NDM-1 [1] | MIC of biapenem in combination with compound, Acinetobacter baumannii ARLG-1852 OXA-23 [11] | MIC of meropenem in combination with compound, Acinetobacter baumannii ARLG-1852 OXA-23 [11] | MIC of biapenem in combination with compound, Klebsiella pneumoniae ARLG-1196 CTM-1 group, SHV, NDM, TEM [2] | MIC of meropenem in combination with compound, Klebsiella pneumoniae ARLG-1196 CTM-1 group, SHV, NDM, TEM [2] | MIC of biapenem in combination with compound, Acinetobacter baumannii WX-AB013 [12] | MIC of meropenem in combination with compound, Acinetobacter baumannii WX-AB013 [12] | MIC of biapenem in combination with compound, Acinetobacter baumannii ARLG-1809 OXA-23 [13] | MIC of meropenem in combination with compound, Acinetobacter baumannii ARLG-1809 OXA-23 [13] | Structure (SMILES) | MIC [1] | MIC [2] | MIC [3] | MIC [4] | MIC [5] | MIC [6] | MIC [7] | MIC [8] | MIC [9] | MIC [10] | other results
4 | 0.25 µg/mL | 8 µg/mL | 1 µg/mL | 4 µg/mL | 1 µg/mL | 2 µg/mL | 2 µg/mL | 4 µg/mL | 2 µg/mL | 8 µg/mL | O=C(O)c1c(SCCN2CCOCC2)ccc2c1OB(O)C1CC21 (single isomer, unassigned) [Compound 15-a] | – | – | – | – | – | – | – | – | – | – | MIC of biapenem in combination with compound, Escherichia coli ARLG-2829 NDM-5, OXA-1 [7]: 1 µg/mL; MIC of meropenem in combination with compound, Escherichia coli ARLG-2829 NDM-5, OXA-1 [7]: 16 µg/mL; MIC of biapenem in combination with compound, Acinetobacter baumannii ARLG-1791 OXA-23 [14]: 2 µg/mL; MIC of meropenem in combination with compound, Acinetobacter baumannii ARLG-1791 OXA-23 [14]: 8 µg/mL; MIC of biapenem in combination with compound, Acinetobacter baumannii ARLG-1853 OXA-23 [15]: 1 µg/mL; MIC of meropenem in combination with compound, Acinetobacter baumannii ARLG-1853 OXA-23 [15]: 16 µg/mL; MIC of biapenem in combination with compound, Acinetobacter baumannii WX-AB005 [16]: 4 µg/mL; MIC of meropenem in combination with compound, Acinetobacter baumannii WX-AB005 [16]: 8 µg/mL; MIC of biapenem in combination with compound, Klebsiella pneumoniae ATCC BAA-1705 KPC-2 [10]: ≤0.125 µg/mL; MIC of meropenem in combination with compound, Klebsiella pneumoniae ATCC BAA-1705 KPC-2 [10]: ≤0.125 µg/mL
5 | 0.5 µg/mL | 16 µg/mL | 1 µg/mL | 8 µg/mL | ≤0.125 µg/mL | 4 µg/mL | 1 µg/mL | 4 µg/mL | 4 µg/mL | 8 µg/mL | C[C@@H](Sc1ccc2c(c1C(=O)O)OB(O)[C@H]1C[C@@H]21)[C@@H]1CCCO1 [Compound 18-d] | – | – | – | – | – | – | – | – | – | – | MIC of biapenem in combination with compound, Escherichia coli ARLG-2829 NDM-5, OXA-1 [7]: 0.5 µg/mL; MIC of meropenem in combination with compound, Escherichia coli ARLG-2829 NDM-5, OXA-1 [7]: 8 µg/mL; MIC of biapenem in combination with compound, Acinetobacter baumannii ARLG-1791 OXA-23 [14]: 1 µg/mL; MIC of meropenem in combination with compound, Acinetobacter baumannii ARLG-1791 OXA-23 [14]: 8 µg/mL; MIC of biapenem in combination with compound, Acinetobacter baumannii ARLG-1853 OXA-23 [15]: 1 µg/mL; MIC of meropenem in combination with compound, Acinetobacter baumannii ARLG-1853 OXA-23 [15]: 4 µg/mL; MIC of biapenem in combination with compound, Acinetobacter baumannii WX-AB005 [16]: 4 µg/mL; MIC of meropenem in combination with compound, Acinetobacter baumannii WX-AB005 [16]: 8 µg/mL; MIC of biapenem in combination with compound, Klebsiella pneumoniae ATCC BAA-1705 KPC-2 [10]: 0.5 µg/mL; MIC of meropenem in combination with compound, Klebsiella pneumoniae ATCC BAA-1705 KPC-2 [10]: 0.5 µg/mL
6 | 0.25 µg/mL | 32 µg/mL | 0.5 µg/mL | 4 µg/mL | 0.5 µg/mL | 8 µg/mL | 1 µg/mL | 8 µg/mL | 4 µg/mL | 32 µg/mL | CC(Sc1ccc2c(c1C(=O)O)OB(O)C1CC21)C1CCOCC1 (single isomer, unassigned) [Compound 17-a] | – | – | – | – | – | – | – | – | – | – | MIC of biapenem in combination with compound, Escherichia coli ARLG-2829 NDM-5, OXA-1 [7]: 0.25 µg/mL; MIC of meropenem in combination with compound, Escherichia coli ARLG-2829 NDM-5, OXA-1 [7]: 8 µg/mL; MIC of biapenem in combination with compound, Acinetobacter baumannii ARLG-1791 OXA-23 [14]: 2 µg/mL; MIC of meropenem in combination with compound, Acinetobacter baumannii ARLG-1791 OXA-23 [14]: 16 µg/mL; MIC of biapenem in combination with compound, Acinetobacter baumannii ARLG-1853 OXA-23 [15]: 1 µg/mL; MIC of meropenem in combination with compound, Acinetobacter baumannii ARLG-1853 OXA-23 [15]: 8 µg/mL; MIC of biapenem in combination with compound, Acinetobacter baumannii WX-AB005 [16]: 4 µg/mL; MIC of meropenem in combination with compound, Acinetobacter baumannii WX-AB005 [16]: 32 µg/mL; MIC of biapenem in combination with compound, Klebsiella pneumoniae ATCC BAA-1705 KPC-2 [10]: 0.5 µg/mL; MIC of meropenem in combination with compound, Klebsiella pneumoniae ATCC BAA-1705 KPC-2 [10]: 8 µg/mL

Reference: US20250223303A1, “TRICYCLIC BORONIC ACID DERIVATIVE, AND PREPARATION METHOD THEREFOR AND APPLICATION THEREOF” (priority 2021, published 2025)
